Test results taken from patent US8247211B2, “Glycopeptide antibiotics” (American Cyanamid Company, priority 2001, dated 2012).
Values after ≈ are worked out from the molar mass of the structure shown.

Experiments:
Test in all cases: In vitro antibacterial evaluation: minimum inhibitory concentration (MIC), broth dilution method
Format in all cases: cell-based
Staphylococcus sp. = conditions: broth dilution, 18 hours at 35° C.
Outline: (§1)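 Broth dilution per NCCLS M7-A2 in Muller-Hinton II […], inoculum 5×10^5 CFU/mL, antibiotic tested over 64-0.06 μg/mL. MIC is taken as the lowest concentration that inhibits growth. Panel includes recent clinical isolates resistant to methicillin, penicillin and/or vancomycin.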

Enterococcus sp. = system: Enterococcus sp.
Outline: as §1

Streptococcus sp. = system: Streptococcus sp.
Outline: as §1

Escherichia coli = conditions: strain GC 4560
Outline: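 Following NCCLS approved standard M7-A2, compounds are serially diluted from 64 to 0.06 μg/mL in Muller-Hinton II […] and inoculated at 5×10^5 CFU/mL; the MIC is the minimum concentration at which growth is inhibited.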

[1] = broth dilution, inoculum 5×10^5 CFU/mL, 18 hours at 35° C.

MIC Coagulase Negative Staphylococcus (GC 4547) (Staphylococcus sp.; 5×10^5 CFU/mL): 8 µg/mL (≈ 5.43 µM)
MIC Coagulase Negative Staphylococcus (GC 4548) (Staphylococcus sp.; 5×10^5 CFU/mL): 8 µg/mL (≈ 5.43 µM)
MIC Coagulase Negative Staphylococcus (GC 4549) (Staphylococcus sp.; 5×10^5 CFU/mL): 8 µg/mL (≈ 5.43 µM)
MIC Coagulase Negative Staphylococcus (GC 4551) (Staphylococcus sp.; 5×10^5 CFU/mL): 16 µg/mL (≈ 10.9 µM)
MIC Coagulase Negative Staphylococcus (GC 6257) (Staphylococcus sp.; 5×10^5 CFU/mL): 8 µg/mL (≈ 5.43 µM)
MIC Staphylococcus aureus (ATCC 29213) (Staphylococcus sp.; 5×10^5 CFU/mL): 16 µg/mL (≈ 10.9 µM)
MIC Staphylococcus aureus (GC 1131) (Staphylococcus sp.; 5×10^5 CFU/mL): 16 µg/mL (≈ 10.9 µM)
MIC Staphylococcus aureus (GC 3051) (Staphylococcus sp.; 5×10^5 CFU/mL): 16 µg/mL (≈ 10.9 µM)
MIC Staphylococcus aureus (GC 3053) (Staphylococcus sp.; 5×10^5 CFU/mL): 16 µg/mL (≈ 10.9 µM)
MIC Staphylococcus aureus (GC 4541) (Staphylococcus sp.; 5×10^5 CFU/mL): 8 µg/mL (≈ 5.43 µM)
MIC Staphylococcus aureus (GC 4542) (Staphylococcus sp.; 5×10^5 CFU/mL): 16 µg/mL (≈ 10.9 µM)
MIC Staphylococcus aureus (GC 4544) (Staphylococcus sp.; 5×10^5 CFU/mL): 16 µg/mL (≈ 10.9 µM)
MIC Staphylococcus aureus (GC 4545) (Staphylococcus sp.; 5×10^5 CFU/mL): 16 µg/mL (≈ 10.9 µM)
MIC Staphylococcus aureus-SMITH (GC 4543) (Staphylococcus sp.; 5×10^5 CFU/mL): 16 µg/mL (≈ 10.9 µM)
MIC Staphylococcus aureus (ATCC 29213) (Staphylococcus sp.; strain ATCC 29213): 16 µg/mL (≈ 10.9 µM)
MIC Staphylococcus aureus (GC 1131) (Staphylococcus sp.; strain GC 1131): 16 µg/mL (≈ 10.9 µM)
MIC Staphylococcus aureus (GC 3051) (Staphylococcus sp.; strain GC 3051): 16 µg/mL (≈ 10.9 µM)
MIC Staphylococcus aureus (GC 3053) (Staphylococcus sp.; strain GC 3053): 16 µg/mL (≈ 10.9 µM)
MIC Staphylococcus aureus (GC 4541) (Staphylococcus sp.; strain GC 4541): 8 µg/mL (≈ 5.43 µM)
MIC Staphylococcus aureus (GC 4542) (Staphylococcus sp.; strain GC 4542): 16 µg/mL (≈ 10.9 µM)
MIC Staphylococcus aureus-SMITH (GC 4543) (Staphylococcus sp.; strain GC 4543): 16 µg/mL (≈ 10.9 µM)
MIC Staphylococcus aureus (GC 4544) (Staphylococcus sp.; strain GC 4544): 16 µg/mL (≈ 10.9 µM)
MIC Staphylococcus aureus (GC 4545) (Staphylococcus sp.; strain GC 4545): 16 µg/mL (≈ 10.9 µM)
MIC Coagulase Negative Staphylococcus (GC 4547) (Staphylococcus sp.; strain GC 4547): 8 µg/mL (≈ 5.43 µM)
MIC Coagulase Negative Staphylococcus (GC 4548) (Staphylococcus sp.; strain GC 4548): 8 µg/mL (≈ 5.43 µM)
MIC Coagulase Negative Staphylococcus (GC 4549) (Staphylococcus sp.; strain GC 4549): 8 µg/mL (≈ 5.43 µM)
MIC Coagulase Negative Staphylococcus (GC 4551) (Staphylococcus sp.; strain GC 4551): 16 µg/mL (≈ 10.9 µM)
MIC Coagulase Negative Staphylococcus (GC 6257) (Staphylococcus sp.; strain GC 6257): 8 µg/mL (≈ 5.43 µM)
MIC Enterococcus avium (GC 4558) (Enterococcus sp.; [1]): 32 µg/mL (≈ 21.7 µM)
MIC Enterococcus faecalis (ATCC 29212) (Enterococcus sp.; [1]): 32 µg/mL (≈ 21.7 µM)
MIC Enterococcus faecalis (GC 2242) (Enterococcus sp.; [1]): 32 µg/mL (≈ 21.7 µM)
MIC Enterococcus faecalis (GC 2691) (Enterococcus sp.; [1]): 32 µg/mL (≈ 21.7 µM)
MIC Enterococcus faecalis (GC 3059) (Enterococcus sp.; [1]): 32 µg/mL (≈ 21.7 µM)
MIC Enterococcus faecalis (GC 4552) (Enterococcus sp.; [1]): 32 µg/mL (≈ 21.7 µM)
MIC Enterococcus faecalis (GC 4553) (Enterococcus sp.; [1]): 32 µg/mL (≈ 21.7 µM)
MIC Enterococcus faecalis (GC 4554) (Enterococcus sp.; [1]): 32 µg/mL (≈ 21.7 µM)
MIC Enterococcus faecalis (GC 6189) (Enterococcus sp.; [1]): 32 µg/mL (≈ 21.7 µM)
MIC Enterococcus faecium (GC 2243) (Enterococcus sp.; [1]): 32 µg/mL (≈ 21.7 µM)
MIC Enterococcus faecium (GC 4556) (Enterococcus sp.; [1]): 32 µg/mL (≈ 21.7 µM)
MIC Enterococcus faecium (GC 4557) (Enterococcus sp.; [1]): 8 µg/mL (≈ 5.43 µM)
MIC Enterococcus faecalis (ATCC 29212) (Enterococcus sp.; strain ATCC 29212): 32 µg/mL (≈ 21.7 µM)
MIC Enterococcus faecalis (GC 2242) (Enterococcus sp.; strain GC 2242): 32 µg/mL (≈ 21.7 µM)
MIC Enterococcus faecium (GC 2243) (Enterococcus sp.; strain GC 2243): 32 µg/mL (≈ 21.7 µM)
MIC Enterococcus faecalis (GC 2691) (Enterococcus sp.; strain GC 2691): 32 µg/mL (≈ 21.7 µM)
MIC Enterococcus faecalis (GC 3059) (Enterococcus sp.; strain GC 3059): 32 µg/mL (≈ 21.7 µM)
MIC Enterococcus faecalis (GC 4552) (Enterococcus sp.; strain GC 4552): 32 µg/mL (≈ 21.7 µM)
MIC Enterococcus faecalis (GC 4553) (Enterococcus sp.; strain GC 4553): 32 µg/mL (≈ 21.7 µM)
MIC Enterococcus faecalis (GC 4554) (Enterococcus sp.; strain GC 4554): 32 µg/mL (≈ 21.7 µM)
MIC Enterococcus faecium (GC 4556) (Enterococcus sp.; strain GC 4556): 32 µg/mL (≈ 21.7 µM)
MIC Enterococcus faecium (GC 4557) (Enterococcus sp.; strain GC 4557): 8 µg/mL (≈ 5.43 µM)
MIC Enterococcus avium (GC 4558) (Enterococcus sp.; strain GC 4558): 32 µg/mL (≈ 21.7 µM)
MIC Enterococcus faecalis (GC 6189) (Enterococcus sp.; strain GC 6189): 32 µg/mL (≈ 21.7 µM)
MIC Streptococcus agalactiae (GC 4564) (Streptococcus sp.; [1]): 2 µg/mL (≈ 1.36 µM)
MIC Streptococcus pneumoniae (ATCC 6301) (Streptococcus sp.; [1]): 1 µg/mL (≈ 0.679 µM)
MIC Streptococcus pneumoniae (GC 1894) (Streptococcus sp.; [1]): 0.25 µg/mL (≈ 0.17 µM)
MIC Streptococcus pneumoniae (GC 4565) (Streptococcus sp.; [1]): 1 µg/mL (≈ 0.679 µM)
MIC Streptococcus pyogenes (GC 4563) (Streptococcus sp.; [1]): 1 µg/mL (≈ 0.679 µM)
MIC Streptococcus pneumoniae (ATCC 6301) (Streptococcus sp.; strain ATCC 6301): 1 µg/mL (≈ 0.679 µM)
MIC Streptococcus pneumoniae (GC 1894) (Streptococcus sp.; strain GC 1894): 0.25 µg/mL (≈ 0.17 µM)
MIC Streptococcus pyogenes (GC 4563) (Streptococcus sp.; strain GC 4563): 1 µg/mL (≈ 0.679 µM)
MIC Streptococcus agalactiae (GC 4564) (Streptococcus sp.; strain GC 4564): 2 µg/mL (≈ 1.36 µM)
MIC Streptococcus pneumoniae (GC 4565) (Streptococcus sp.; strain GC 4565): 1 µg/mL (≈ 0.679 µM)
MIC Escherichi coli (GC 4560) (Escherichia coli): 8 µg/mL (≈ 5.43 µM)
Compound: CCOc1cc(C2OCC3OC(OC4C(CO)OC(Oc5ccc(CC6NC(=O)C(C(C)c7ccccc7)NC(=O)CNC(=O)C(CO)NC(=O)C(C(O)C7CNC(=N)N7C7OC(CO)C(O)C(O)C7O)NC(=O)C(C(O)C7CNC(=N)N7)NC6=O)cc5)C(O)C4O)C(O)C(O)C3O2)ccc1[N+](=O)[O-] (stereo not drawn) [Example 167, Cyclo[glycyl-β-methylphenylalanyl-O-[4-O-[4,6-O-(3-ethoxy-4-nitrobenzylidene)hexopyranosyl]hexopyranosyl]tyrosyl-3-(2-iminoimidazolidin-4-yl)seryl-3-(3-hexopyranosyl-2-iminoimidazolidin-4-yl)serylseryl]]
MIC Staphylococcus haemolyticus (GC 4546) (Staphylococcus sp.; 5×10^5 CFU/mL): 16 µg/mL (≈ 10.9 µM)
MIC Staphylococcus haemolyticus (GC 4546) (Staphylococcus sp.; strain GC 4546): 16 µg/mL (≈ 10.9 µM)
